Here are results for one compound from patent US9120820B2, “Fluorescent molecular probes for use in assays that measure test compound competitive binding with SAM-utilizing proteins” (CAYMAN CHEMICAL COMPANY, INCORPORATED, priority 2011, dated 2015).

Where two headings read alike, the source gives them in different places.

In one assay the target is T1, G9a (Homo sapiens, UniProt Q96KQ7).
T1 construct: purchased Cayman 49010353
T1 sequence (Q96KQ7 1-1210): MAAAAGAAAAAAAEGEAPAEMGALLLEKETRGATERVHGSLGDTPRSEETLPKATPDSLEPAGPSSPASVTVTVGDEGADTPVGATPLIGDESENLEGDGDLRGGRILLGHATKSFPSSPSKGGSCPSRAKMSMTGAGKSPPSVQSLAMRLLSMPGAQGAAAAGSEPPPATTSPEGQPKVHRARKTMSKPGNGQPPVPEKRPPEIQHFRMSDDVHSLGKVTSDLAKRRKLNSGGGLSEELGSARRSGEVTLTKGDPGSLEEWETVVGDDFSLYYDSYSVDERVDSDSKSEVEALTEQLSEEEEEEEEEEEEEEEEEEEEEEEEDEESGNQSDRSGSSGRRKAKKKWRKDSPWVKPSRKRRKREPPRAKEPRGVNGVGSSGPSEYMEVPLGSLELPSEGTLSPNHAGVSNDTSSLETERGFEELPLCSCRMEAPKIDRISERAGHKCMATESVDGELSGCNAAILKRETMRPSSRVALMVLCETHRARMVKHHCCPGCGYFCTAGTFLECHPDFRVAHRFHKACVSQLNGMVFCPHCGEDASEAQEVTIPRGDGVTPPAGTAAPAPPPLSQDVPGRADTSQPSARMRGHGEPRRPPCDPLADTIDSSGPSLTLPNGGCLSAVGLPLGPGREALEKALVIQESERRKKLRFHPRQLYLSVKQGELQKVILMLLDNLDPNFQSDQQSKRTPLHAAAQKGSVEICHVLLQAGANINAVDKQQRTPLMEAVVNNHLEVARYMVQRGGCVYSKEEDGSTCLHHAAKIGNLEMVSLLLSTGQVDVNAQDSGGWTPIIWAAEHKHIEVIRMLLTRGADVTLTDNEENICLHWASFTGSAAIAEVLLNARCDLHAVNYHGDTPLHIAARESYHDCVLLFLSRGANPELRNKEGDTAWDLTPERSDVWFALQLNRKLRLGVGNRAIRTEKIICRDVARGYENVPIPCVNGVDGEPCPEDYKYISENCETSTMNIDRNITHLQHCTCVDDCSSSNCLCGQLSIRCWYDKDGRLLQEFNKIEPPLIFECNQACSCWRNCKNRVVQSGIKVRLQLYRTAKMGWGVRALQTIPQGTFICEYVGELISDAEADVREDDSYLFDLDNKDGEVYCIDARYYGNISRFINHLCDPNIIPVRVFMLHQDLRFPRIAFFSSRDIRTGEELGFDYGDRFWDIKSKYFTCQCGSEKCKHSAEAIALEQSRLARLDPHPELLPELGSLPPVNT
Kind of assay: Fluorescence polarization saturation binding of fluorescent probe to G9a. The procedure:
Methods: The experiment was performed once, with two replicate wells for all methyltransferases per condition. The sole exception to this is NSD2 (see details below). The assay was performed in a ½ area, black, 96-well plate (Corning #3686) in a final volume of 30 μL. Methyltransferases (Table 1) were serially diluted two-fold in FP buffer (Cayman Catalog #600028) and 15 μL of a given dilution were added per well to the assay plate. Fifteen microliters of sinefungin probe 1A (10 nM) were added to each well, giving a final sinefungin probe 1A concentration of 5 nM. This concentration of sinefungin probe 1A was chosen because it had at least a 10-fold increase in fluorescence (excitation max 575 nm/emission max 615 nm) over background (buffer). The mixture was incubated in the dark at room temperature for 30 minutes and its fluorescence polarization was read using a BioTek Synergy 4.
For orientation: Polarisation of emitted light reports the rotation of a fluorescent probe.

For the next assay, the target named is KMT5b (Homo sapiens, UniProt Q4FZB7). Kind of assay: Fluorescence polarization saturation binding of fluorescent probe to KMT5b. To be noted: saturation-binding format, mean ± SEM, read-out: Sinefungin Probe 1A Affinity. The procedure: (§1) Sinefungin Probe 1A was tested for the ability to bind to 16 proteins, including several non-methlytransferase protein controls (Table 2). This probe binds to 4 methyltransferases (SET7/9, G9a, GLP, MLL) with Kd values <2 μM.
Chain of KMT5b (Q4FZB7 whole entry, species assumed): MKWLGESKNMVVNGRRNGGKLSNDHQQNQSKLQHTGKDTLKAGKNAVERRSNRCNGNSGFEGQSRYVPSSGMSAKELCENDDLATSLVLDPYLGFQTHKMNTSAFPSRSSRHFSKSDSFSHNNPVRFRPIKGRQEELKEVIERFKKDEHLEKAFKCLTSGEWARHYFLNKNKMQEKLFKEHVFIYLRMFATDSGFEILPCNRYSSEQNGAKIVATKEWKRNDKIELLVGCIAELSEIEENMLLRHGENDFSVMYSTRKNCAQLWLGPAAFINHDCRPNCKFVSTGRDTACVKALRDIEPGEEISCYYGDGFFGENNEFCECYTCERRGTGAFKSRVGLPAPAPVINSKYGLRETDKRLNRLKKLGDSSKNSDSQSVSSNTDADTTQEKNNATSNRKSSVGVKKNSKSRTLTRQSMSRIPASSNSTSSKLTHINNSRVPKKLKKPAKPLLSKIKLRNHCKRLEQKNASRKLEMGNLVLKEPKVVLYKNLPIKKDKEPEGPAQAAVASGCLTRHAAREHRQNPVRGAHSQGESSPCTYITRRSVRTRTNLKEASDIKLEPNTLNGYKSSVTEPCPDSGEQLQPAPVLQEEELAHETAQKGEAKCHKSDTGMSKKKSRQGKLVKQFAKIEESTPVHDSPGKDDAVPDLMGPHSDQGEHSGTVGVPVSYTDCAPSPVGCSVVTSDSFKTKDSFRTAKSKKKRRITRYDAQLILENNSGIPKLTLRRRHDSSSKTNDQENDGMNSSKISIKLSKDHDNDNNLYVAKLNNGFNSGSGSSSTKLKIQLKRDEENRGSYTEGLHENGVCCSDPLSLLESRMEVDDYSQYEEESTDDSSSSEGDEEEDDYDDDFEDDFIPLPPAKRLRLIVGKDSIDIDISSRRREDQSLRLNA

The next assay has as its target KMT5c (Homo sapiens, UniProt Q86Y97). Kind of assay: Fluorescence polarization saturation binding of fluorescent probe to KMT5c. To be noted: saturation-binding format, read-out: Sinefungin Probe 1A Affinity. The procedure:
as §1

Another assay deals with T2, PRMT4 (Homo sapiens, UniProt Q86X55).
T2 construct: made in house
T2 sequence (Q86X55 1-608): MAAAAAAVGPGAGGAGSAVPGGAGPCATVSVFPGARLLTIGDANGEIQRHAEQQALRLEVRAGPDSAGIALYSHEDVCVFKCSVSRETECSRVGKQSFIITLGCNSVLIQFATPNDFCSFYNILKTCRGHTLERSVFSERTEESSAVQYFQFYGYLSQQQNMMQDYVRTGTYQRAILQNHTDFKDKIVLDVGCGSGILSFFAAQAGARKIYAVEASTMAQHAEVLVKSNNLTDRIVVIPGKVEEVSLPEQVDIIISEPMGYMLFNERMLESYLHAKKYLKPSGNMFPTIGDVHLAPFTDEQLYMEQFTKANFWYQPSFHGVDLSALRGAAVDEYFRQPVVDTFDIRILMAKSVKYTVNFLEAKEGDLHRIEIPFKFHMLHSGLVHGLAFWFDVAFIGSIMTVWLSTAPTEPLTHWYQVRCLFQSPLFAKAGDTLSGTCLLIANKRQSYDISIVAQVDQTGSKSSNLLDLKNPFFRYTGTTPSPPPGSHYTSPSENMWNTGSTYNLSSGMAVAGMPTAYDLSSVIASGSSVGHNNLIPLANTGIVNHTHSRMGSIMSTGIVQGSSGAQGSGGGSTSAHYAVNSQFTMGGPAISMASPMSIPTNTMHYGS
The assay can be described thus: Fluorescence polarization saturation binding of fluorescent probe to PRMT4. Conditions: saturation-binding format, read-out: Sinefungin Probe 1A Affinity. The procedure:
as §1

A further assay addresses ASH2L (Homo sapiens, UniProt Q9UBL3). The assay can be described thus: Fluorescence polarization saturation binding of fluorescent probe to ASH2L. Conditions: saturation-binding format, read-out: Sinefungin Probe 1A Affinity. The procedure: as §1
For a further assay, the target named is T3, SET7/9 (Homo sapiens, UniProt Q8WTS6).
T3 construct: purchased Cayman 10320
T3 sequence (Q8WTS6 1-366): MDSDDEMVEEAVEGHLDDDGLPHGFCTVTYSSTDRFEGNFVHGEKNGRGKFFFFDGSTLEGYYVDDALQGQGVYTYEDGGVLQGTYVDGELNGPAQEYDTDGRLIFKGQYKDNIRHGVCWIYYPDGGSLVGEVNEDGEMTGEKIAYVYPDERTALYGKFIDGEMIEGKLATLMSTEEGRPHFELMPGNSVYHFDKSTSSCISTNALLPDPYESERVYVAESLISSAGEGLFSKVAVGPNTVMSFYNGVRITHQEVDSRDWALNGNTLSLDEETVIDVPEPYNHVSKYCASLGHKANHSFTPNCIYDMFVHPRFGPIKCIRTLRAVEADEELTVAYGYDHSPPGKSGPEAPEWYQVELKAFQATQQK
The assay can be described thus: SET7/9 SAM-Screener high-throughput FP assay, Sinefungin Probe 1A displacement. The assay is classed as binding. To be noted: SET7/9 30 nM, FIG. 10.

Chain of KMT5c (Q86Y97 whole entry, species assumed): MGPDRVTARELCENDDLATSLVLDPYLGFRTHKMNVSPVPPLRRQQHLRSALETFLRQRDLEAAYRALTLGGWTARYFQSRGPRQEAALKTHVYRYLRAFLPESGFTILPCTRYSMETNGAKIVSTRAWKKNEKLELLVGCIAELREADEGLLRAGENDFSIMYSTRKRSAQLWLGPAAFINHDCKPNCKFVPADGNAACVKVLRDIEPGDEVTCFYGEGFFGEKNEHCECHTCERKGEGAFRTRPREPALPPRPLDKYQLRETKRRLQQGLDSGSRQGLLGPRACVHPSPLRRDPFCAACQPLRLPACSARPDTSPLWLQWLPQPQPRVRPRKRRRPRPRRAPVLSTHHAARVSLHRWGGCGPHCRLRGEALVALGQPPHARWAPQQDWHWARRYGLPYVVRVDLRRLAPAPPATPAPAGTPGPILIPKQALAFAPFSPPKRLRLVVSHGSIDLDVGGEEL
Chain of ASH2L (Q9UBL3 whole entry, species assumed): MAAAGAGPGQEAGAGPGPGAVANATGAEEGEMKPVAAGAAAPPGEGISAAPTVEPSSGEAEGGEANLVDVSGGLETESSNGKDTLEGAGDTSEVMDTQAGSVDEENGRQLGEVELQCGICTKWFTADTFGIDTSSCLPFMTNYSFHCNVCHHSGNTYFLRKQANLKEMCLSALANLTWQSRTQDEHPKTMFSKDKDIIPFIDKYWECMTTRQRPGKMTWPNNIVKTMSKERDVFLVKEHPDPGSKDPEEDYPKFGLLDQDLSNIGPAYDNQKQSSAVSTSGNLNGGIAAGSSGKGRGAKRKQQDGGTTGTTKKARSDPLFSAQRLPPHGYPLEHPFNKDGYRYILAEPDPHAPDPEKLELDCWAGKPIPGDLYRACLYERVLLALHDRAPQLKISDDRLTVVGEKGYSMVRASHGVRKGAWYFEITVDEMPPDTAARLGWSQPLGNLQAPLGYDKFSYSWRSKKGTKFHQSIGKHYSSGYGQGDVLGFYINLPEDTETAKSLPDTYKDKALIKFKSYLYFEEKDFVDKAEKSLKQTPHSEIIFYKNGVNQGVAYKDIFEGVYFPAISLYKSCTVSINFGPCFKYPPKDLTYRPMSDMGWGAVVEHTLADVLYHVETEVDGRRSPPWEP
Procedure for SET7/9: Methods: A collection of 14,400 compounds from the Maybridge HitFinder collection of compounds was assayed for the displacement of Sinefungin Probe 1A from SET7/9 in a high-throughput manner using the SET7/9 SAM-Screener FP assay Cayman Catalog Item #600490). Thirty microliters of assay buffer (50 mM Tris pH 8.0, 50 mM KCl, 5 mM CHAPS, 2 mM DTT) was added to every well of a black 384-well polystyrene microtiter plate (Thermo-Fisher 364576). To every well, excluding control wells, was added one microliter of a DMSO solution containing a test compound. Control wells received either 1 μl DMSO or 1 μl of a sinefungin solution. The final concentration of sinefungin control or test compounds in the assay was 50 μM or 10 μM, respectively. To every well of the plate was added 10 μl of a SET7/9 solution to give a final assay concentration of 30 nM. After a 15-minute incubation at ambient temperature, 10 μl of Sinefungin Probe 1A solution was added to every well to give a final assay concentration of 10 nM in a total assay volume of 50 μl Samples were analyzed using a Biotek Synergy H4 plate reader in fluorescence polarization mode after a 30-minute incubation at ambient temperature in the dark. Data were analyzed using GeneData (v. 9.01). […]

On to `Nc1ncnc2c1ncn2[C@@H]1O[C@H](C[C@@H](N)CC[C@H](N)C(=O)O)[C@@H](OCc2cnnn2CCCCCCNC(=O)OC2CCN(C(=O)c3ccccc3C3=c4cc5c6c(c4Oc4c3cc3c7c4CCCN7CCC3)CCC[N+]=6CCC5)CC2)[C@H]1O` [Sinefungin Probe 1A], for which the Kd is approximately 0.7 µM on G9a (Example 8, G9a, 5 nM probe, experiment performed once, FIG. 2, read-out: Kd); 1.8 ± 1 µM on G9a (G9a, saturation-binding format, mean ± SEM, read-out: Sinefungin Probe 1A Affinity); 6.1 ± 0.8 µM at KMT5b; more than 2 µM on KMT5c; more than 2 µM at PRMT4; more than 10 µM at ASH2L. In addition, the “increase of probe polarization by binding” value on SET7/9 is recorded as more than 120 mp.
